Results reported in ChEMBL document CHEMBL4699579, “A Peptidyl Inhibitor that Blocks Calcineurin-NFAT Interaction and Prevents Acute Lung Injury” (J Med Chem, 2020).
Active and inactive are the calls of the source. No cut-off for these calls is given here. Positions of bridges follow the written chain, without caps; N, C: chain ends. Non-standard residues stand in square brackets, D forms with d. Residues, ends and D or L forms follow the SMILES beside them. Chains are numbered I, II in the order given. *: point of attachment. 2Nal = N[C@@H](Cc1ccc2ccccc2c1)C(=O)O; Val(3-OH) = CC(C)(O)[C@H](N)C(=O)O; Tle = CC(C)(C)[C@H](N)C(=O)O; X1 = O=C(c1ccnc(Cl)c1Cl)*; AEEA = NCCOCCOCC(=O)O

Tests used:
[1] = Drug uptake in human HCT-116 cells spheroids at 5 uM incubated for 4 to 24 hrs by MALDI-TOF-TOF mass spectrometry; format: ADME, cell-based; details: hct-116, 5 µM, TDE = time-dependent effect, time 4-24 hrs
[2] = Stability in human HCT-116 cells spheroids assessed as compound degradation at 5 uM incubated for 24 hrs by MALDI-TOF-TOF mass spectrometry; format: ADME, cell-based; details: hct-116, 24 h
[3] = Drug distribution in BALB/c mouse liver at […], ip using compound labelled with cyanine-5 measured after 24 hrs by fluorescence based assay; format: ADME, organism-based; details: in vivo, dose 2.4 mg/kg
[4] = Drug distribution in BALB/c mouse spleen at […], ip using compound labelled with cyanine-5 measured after 24 hrs by fluorescence based assay; format: ADME, organism-based; details: in vivo, dose 2.4 mg/kg
[5] = Drug distribution in BALB/c mouse monocytes at […], ip using compound labelled with cyanine-5 measured after 24 hrs by flow cytometry; format: ADME, organism-based, Monocyte; details: in vivo, dose 2.4 mg/kg
[6] = Drug distribution in BALB/c mouse lung at […], sc using compound labelled with cyanine-5 measured after 24 hrs by fluorescence based assay; format: ADME, organism-based; details: dose 2.4 mg/kg, read-out: Drug uptake
[7] = Drug distribution in BALB/c mouse Non-T and B lymphocytes at […], sc using compound labelled with cyanine-5 measured after 24 hrs by flow cytometry; format: ADME, organism-based, Lymphocyte; details: in vivo, dose 2.4 mg/kg
[8] = Drug distribution in BALB/c mouse neutrophils at […], sc using compound labelled with cyanine-5 measured after 24 hrs by flow cytometry; format: ADME, organism-based, Neutrophil; details: in vivo, dose 2.4 mg/kg
[9] = Drug distribution in BALB/c mouse monocytes at 0.6 mg/kg, iv using compound labelled with cyanine-5 measured after 24 hrs by flow cytometry; format: ADME, organism-based, Monocyte; details: in vivo
[10] = Drug distribution in BALB/c mouse pancreas at […], sc using compound labelled with cyanine-5 measured after 24 hrs by fluorescence based assay; format: ADME, organism-based; details: dose 2.4 mg/kg, read-out: Drug uptake
[11] = Drug metabolism in BALB/c mouse liver at 5 mg/kg, iv after 8 hrs by LC-MS/MS analysis; format: ADME, organism-based; details: in vivo
[12] = species on record: Homo sapiens; assay: Inhibition of GST-tagged Calcineurin (unknown origin) assessed as reduction in phosphatase activity at 50 uM incubated for 30 mins using p-nitrophenyl phosphate substrate
[13] = Drug distribution in BALB/c mouse heart at 0.6 mg/kg, iv using compound labelled with cyanine-5 measured after 24 hrs by fluorescence based assay; format: ADME, organism-based; details: read-out: Drug uptake
[14] = system: Mus musculus; assay: Anti-inflammatory activity in BALB/c mouse model of LPS-induced ALI assessed as reduction in LPS-induced IL6 level in BALF at 0.3 to 3 mg/kg dosed via intranasal instillation pre-treated 2 hrs before LPS stimulation for 6 hrs; format: functional
[15] = Drug distribution in BALB/c mouse muscle at 0.6 mg/kg, iv using compound labelled with cyanine-5 measured after 24 hrs by fluorescence based assay; format: ADME, organism-based, Muscle tissue; details: in vivo
[16] = Drug distribution in BALB/c mouse lymph nodes at […], ip using compound labelled with cyanine-5 measured after 24 hrs by fluorescence based assay; format: ADME, organism-based, Lymph node; details: dose 2.4 mg/kg, read-out: Drug uptake
[17] = system: Mus musculus; assay: Anti-inflammatory activity in BALB/c mouse model of LPS-induced ALI assessed as reduction in LPS-induced lung wet-to-dry ratios at 5 mg/kg, iv pre-treated 4 hrs before LPS stimulation for 16 hrs; format: functional, organism-based; details: time 20.0 hrs
[18] = Drug distribution in BALB/c mouse monocytes at […], sc using compound labelled with cyanine-5 measured after 24 hrs by flow cytometry; format: ADME, organism-based, Monocyte; details: in vivo, dose 2.4 mg/kg
[19] = Drug distribution in BALB/c mouse kidney at […], sc using compound labelled with cyanine-5 measured after 24 hrs by fluorescence based assay; format: ADME, organism-based; details: in vivo, dose 2.4 mg/kg
[20] = Drug distribution in BALB/c mouse plasma at 0.6 mg/kg, iv using compound labelled with cyanine-5 measured after 24 hrs by fluorescence based assay; format: ADME, organism-based; details: in vivo
[21] = Stability in mouse liver microsomes assessed as compound degradation at 100 uM incubated up to 60 mins in presence of NADPH by LC-MS/MS analysis; format: ADME, Microsome; details: 1 h, TDE = time-dependent effect
[22] = Drug distribution in BALB/c mouse pancreas at 0.6 mg/kg, iv using compound labelled with cyanine-5 measured after 24 hrs by fluorescence based assay; format: ADME, organism-based; details: read-out: Drug uptake
[23] = Drug distribution in BALB/c mouse lung at […], ip using compound labelled with cyanine-5 measured after 24 hrs by fluorescence based assay; format: ADME, organism-based; details: dose 2.4 mg/kg, read-out: Drug uptake
[24] = Drug distribution in BALB/c mouse plasma at […], sc using compound labelled with cyanine-5 measured after 24 hrs by fluorescence based assay; format: ADME, organism-based; details: in vivo, dose 2.4 mg/kg
[25] = system: Mus musculus; assay: Anti-inflammatory activity in BALB/c mouse model of LPS-induced ALI assessed as reduction in LPS-induced IL6 in BALF at 3 mg/kg dosed via intranasal instillation pre-treated 2 hrs before LPS stimulation for 6 hrs and measured at 24 hrs; format: functional, organism-based
[26] = Drug distribution in BALB/c mouse neutrophils at 0.6 mg/kg, iv using compound labelled with cyanine-5 measured after 24 hrs by flow cytometry; format: ADME, organism-based, Neutrophil; details: in vivo
[27] = Drug distribution in BALB/c mouse lymph nodes at 0.6 mg/kg, iv using compound labelled with cyanine-5 measured after 24 hrs by fluorescence based assay; format: ADME, organism-based, Lymph node; details: read-out: Drug uptake
[28] = system: Mus musculus; assay: Anti-inflammatory activity in BALB/c mouse model of LPS-induced ALI assessed as reduction in LPS-induced TNFalpha in BALF at 0.3 to 3 mg/kg dosed via intranasal instillation pre-treated 2 hrs before LPS stimulation for 6 hrs; format: functional
[29] = Drug distribution in BALB/c mouse Non-T and B lymphocytes at 0.6 mg/kg, iv using compound labelled with cyanine-5 measured after 24 hrs by flow cytometry; format: ADME, organism-based, Lymphocyte; details: in vivo
[30] = Drug distribution in BALB/c mouse lung at 0.6 mg/kg, iv using compound labelled with cyanine-5 measured after 24 hrs by fluorescence based assay; format: ADME, organism-based; details: read-out: Drug uptake
[31] = Drug distribution in BALB/c mouse Non-T and B lymphocytes at […], ip using compound labelled with cyanine-5 measured after 24 hrs by flow cytometry; format: ADME, organism-based, Lymphocyte; details: in vivo, dose 2.4 mg/kg
[32] = Stability in mouse hepatocytes at 2 uM incubated up to 90 mins by LC/MS/MS analysis; format: ADME, cell-based, Hepatocyte
[33] = Drug metabolism in BALB/c mouse spleen at 5 mg/kg, iv after 8 hrs by LC-MS/MS analysis; format: ADME, organism-based; details: in vivo
[34] = Drug distribution in BALB/c mouse pancreas at […], ip using compound labelled with cyanine-5 measured after 24 hrs by fluorescence based assay; format: ADME, organism-based; details: dose 2.4 mg/kg, read-out: Drug uptake
[35] = system: Macrophage; assay: Inhibition of calcineurin-NFATc3 interaction in mouse lung macrophages assessed as reduction in LPS-induced IL6 production at 1 uM pre-incubated 4 hrs before LPS stimulation for 8 hrs by ELISA relative to 10 uM CsA; format: tissue-based; details: time 12.0 hrs
[36] = Stability in 25% human serum assessed as compound degradation at 5 uM at 37 degC incubated for 24 hrs by HPLC analysis; format: ADME, cell-free; details: serum, 24 h, 5 µM
[37] = system: Macrophage; assay: Inhibition of calcineurin-NFATc3 interaction in mouse lung macrophages assessed as reduction in LPS-induced IL6 production at 0.1 to 10 uM pre-incubated 4 hrs before LPS stimulation for 8 hrs by ELISA; format: tissue-based; details: DISRUPTING AGENT, dose microM 0.1-10, time 12.0 hrs
[38] = dose mg/kg 0.3-3, time 8 hrs, read-out: MED

## CC[C@H](C)[C@H](NC(=O)[C@@H](NC(=O)c1ccnc(Cl)c1Cl)C(C)(C)C)C(=O)N[C@H](C(=O)N[C@H](C(=O)N[C@H](C(=O)N[C@@H](CCC(N)=O)C(=O)N[C@@H](Cc1c[nH]cn1)C(=O)N[C@H](CC(C)C)C(=O)N[C@@H](CO)C(=O)NCCOCCOCC(=O)N[C@@H](CCCCNC(=O)CC[C@@H]1NC(=O)[C@@H](CCCNC(=N)N)NC(=O)[C@H](CCCNC(=N)N)NC(=O)[C@@H](CCCNC(=N)N)NC(=O)[C@H](CCCNC(=N)N)NC(=O)[C@H](Cc2ccc3ccccc3c2)NC(=O)[C@@H](Cc2ccccc2)NC1=O)C(N)=O)[C@@H](C)O)[C@@H](C)CC)C(C)(C)O (I: X1-[Tle]I[Val(3-OH)]ITQH[dL]S[AEEA]K-NH2 / II: cyclo([2Nal]R[dR]R[dR]E[dF]); amide I:11-II:6)
[1]
  Drug uptake: Tde
[2]
  Stabilty: Stable
[3]
  Drug uptake: Active
[4]
  Drug uptake: Active
[5]
  Drug uptake: Active
[6]
  concentration at 24 h: > 50 nM
[7]
  Drug uptake: Active
[8]
  Drug uptake: Active
[9]
  Drug uptake: Active
[10]
  concentration at 24 h: > 50 nM
[11]
  Drug metabolism: Metabolite_Detected
[12]
  inhibition: inactive
[13]
  concentration at 24 h: > 50 nM
[14]; dose mg/kg 0.3-3, time 8.0 hrs
  Activity: Dose-dependent effect
[14]; [38]
  minimal effective dose: 1 mg/kg
[15]
  Drug uptake: Not Active
[16]
  concentration at 24 h: > 50 nM
[17]
  Activity: Active
[18]
  Drug uptake: Active
[19]
  Drug uptake: Active
[20]
  Drug uptake: Not Active
[21]
  Drug degradation: Tde
[22]
  concentration at 24 h: > 50 nM
[23]
  concentration at 24 h: > 50 nM
[24]
  Drug uptake: Not Active
[25]
  Activity: inactive
[26]
  Drug uptake: Active
[27]
  concentration at 24 h: > 50 nM
[28]; dose mg/kg 0.3-3, time 8.0 hrs
  Activity: Dose-dependent effect
[28]; [38]
  minimal effective dose: 1 mg/kg
[29]
  Drug uptake: Active
[30]
  concentration at 24 h: > 50 nM
[31]
  Drug uptake: Active
[32]
  Stabilty: Stable
[33]
  Drug metabolism: Metabolite_Detected
[34]
  concentration at 24 h: > 50 nM
[35]
  fold change (FC): 10
[36]
  Stabilty: Stable
[37]
  inhibition: Dose-dependent effect
